9 molecules from US20240336611A1 (Insilico Medicine IP Limited, priority 2021, published 2024) can be followed below.

SMILES strings stand for the structures. pIC50: −log10 of the molar value.

The nature of data set [1]: Metabolic stability in human liver microsomes. It is filed as in vitro ADME. As to conditions: LM Clint (intrinsic clearance); 1 μM test compound, 0.5 mg protein/mL microsome, 37° C., up to 60 min. The protocol:
2.1. Test Compound and Control Working Solution Preparation: Working solution: 5 µL of compound and control stock solution (10 mM in dimethyl sulfoxide (DMSO)) were diluted with 495 μL of acetonitrile (ACN) (intermediate solution concentration: 100 μM, 99% ACN).
2.2.1. […] 2.2.2. Preparation Procedure: The appropriate amount of NADPH powder were weighed and diluted into a 10 mM MgCl2 solution (working solution concentration: 10 unit/mL; final concentration in reaction system: 1 unit/mL).
2.3.2. Preparation Procedure: The appropriate concentrations of microsome working solutions were prepared in 100 mM potassium phosphate buffer. 2.4. Stop Solution Preparation: Cold (4° C.) acetonitrile (ACN) containing 200 ng/mL tolbutamide and 200 ng/mL labetalol as internal standards (IS) were used as the stop solution.
2.5.1. Pre-warm empty ‘Incubation’ plates T60 and NCF60 for 10 min minutes. 2.5.2. Liver microsomes were diluted to 0.56 mg/mL in 100 mM phosphate buffer. 2.5.3. 445 uL microsome working solutions (0.56 mg/mL) were transferred into pre-warmed ‘Incubation’ plates T60 and NCF60. Then ‘Incubation’ plates T60 and NCF60 were pre-incubated for 10 min at 37° C. with constant shaking. 54 μL liver microsomes were transferred to blank plate, then 6 μL NAPDH cofactor were added to the blank plate, and then 180 μL quenching solution can be added to blank plate. 2.5.4 5 μL compound working solution (100 μM) were added into ‘incubation’ plates (T60 and NCF60) containing microsomes and mix 3 times thoroughly. 2.5.5. For the NCF60 plate, 50 uL of buffer were added and were mixed 3 times thoroughly. Start timing; plate was incubated at 37° C. for 60 min while shaking. 2.5.6. In ‘Quenching’ plate TO, 180 μL quenching solution were added and 6 μL NAPDH cofactor were added. Ensured the plate was chilled to prevent evaporation. 2.5.7. For the T60 plate, were mixed 3 times thoroughly, and immediately removed 54 μL mixture for the 0-min time point to ‘Quenching’ plate. Then 44 μL NAPDH cofactor were added to incubation plate (T60). Start timing; plate were incubated at 37° C. for 60 min while shaking.
2.5.8. At 5, 10, 20, 30, and 60 min, 180 μL quenching solution were added to ‘Quenching’ plates, mix once, and were serially transferred 60 μL sample from T60 plate per time point to ‘Quenching’ plates.
2.5.9. For NCF60: were mixed once, and 60 μL sample were transferred from the NCF60 incubation to ‘Quenching’ plate containing quenching solution at the 60-min time point.
2.5.10. All sampling plates were shaken for 10 min, then centrifuged at 4000 rpm for 20 minutes at 4° C. 2.5.11. 80 μL supernatant were transferred into 240 μL HPLC water, and were mixed by plate shaker for 10 min. 2.5.12. Each bioanalysis plate were sealed and shaken for 10 minutes prior to LC-MS/MS analysis.
3.1. The equation of first order kinetics were used to calculate T1/2 and Intrinsic clearance (CLint mic) in (μL/min/mg).
Equation of first order kinetic.
A general note: Liver microsomes are a subcellular fraction often used to study metabolism.

For data set [2], the target named is T1, TNIK kinase [amino acid sequence (1-367), Invitrogen] (Homo sapiens, UniProt Q9UKE5).
T1 construct: purchased Invitrogen
Nature of the data set: TNIK kinase inhibition assay (Z-lyte FRET-peptide). In kind it is biochemical. As to conditions: 0.625 nM TNIK kinase, 2 μM Ser/Thr 7 peptide, 64 μM ATP, one hour at room temperature.

T1 sequence (Q9UKE5 1-367): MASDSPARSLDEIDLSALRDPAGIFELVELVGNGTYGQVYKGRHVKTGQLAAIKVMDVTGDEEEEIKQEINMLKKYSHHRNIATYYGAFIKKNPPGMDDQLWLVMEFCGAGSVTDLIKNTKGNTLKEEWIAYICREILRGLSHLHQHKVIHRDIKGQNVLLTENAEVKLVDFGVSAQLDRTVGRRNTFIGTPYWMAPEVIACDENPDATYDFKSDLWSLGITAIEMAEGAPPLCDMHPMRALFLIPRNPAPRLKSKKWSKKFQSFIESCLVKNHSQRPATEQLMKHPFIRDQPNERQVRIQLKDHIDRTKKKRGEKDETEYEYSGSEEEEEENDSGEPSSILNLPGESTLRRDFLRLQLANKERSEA

In the case of `CC(C)n1cnc(-c2ccc(F)cc2)c1-c1nc(C(=O)Nc2ccc(N3C[C@H]4CC[C@@H](C3)N4C)cn2)co1` [Compound 40, 2-(4-(4-fluorophenyl)-1-isopropyl-1H-imidazol-5-yl)-N-(5-((1R,5S)-8-methyl-3,8-diazabicyclo[3.2.1]octan-3-yl)pyridin-2-yl)oxazole-4-carboxamide], the “Human Liver Microsome (μM/min/mg)” value in data set [1] is “+ (>100 μM/min/mg as +)”. For the same molecule, in data set [2], the pIC50 was 7.92 to 9.00.

For the molecule `CC(C)n1cnc(-c2ccc(F)cc2)c1-c1nc(C(=O)Nc2ccc(N3C[C@H]4CC[C@@H](C3)N4C)cn2)cs1` [Compound 41, 2-(4-(4-fluorophenyl)-1-isopropyl-1H-imidazol-5-yl)-N-(5-((1R,5S)-8-methyl-3,8-diazabicyclo[3.2.1]octan-3-yl)pyridin-2-yl)thiazole-4-carboxamide], the “Human Liver Microsome (μM/min/mg)” value in data set [1] was “++ (10-100 μM/min/mg as ++)”. Also, the pIC50 in data set [2] was 7.92 to 9.00.

Regarding `CN1CCN(c2ccc(NC(=O)c3csc(-c4c(-c5ccc(F)cc5)ncn4C4CC4)n3)nc2)CC1` [Compound 42, 2-(1-cyclopropyl-4-(4-fluorophenyl)-1H-imidazol-5-yl)-N-(5-(4-methylpiperazin-1-yl)pyridin-2-yl)thiazole-4-carboxamide], the “Human Liver Microsome (μM/min/mg)” value in data set [1] is listed as “++ (10-100 μM/min/mg as ++)”. In data set [2], this molecule had a pIC50 of 7.92 to 9.00.

`CC(C)n1cnc(-c2ccc(F)cc2)c1-c1nc(C(=O)Nc2ccc3c(n2)CN(C)CC3)cs1` [Compound 43, 2-(4-(4-fluorophenyl)-1-isopropyl-1H-imidazol-5-yl)-N-(7-methyl-5,6,7,8-tetrahydro-1,7-naphthyridin-2-yl)thiazole-4-carboxamide]: the “Human Liver Microsome (μM/min/mg)” value in data set [1] is “+ (>100 μM/min/mg as +)”. The negative-log IC50 (pIC50) in data set [2] was 7.92 to 9.00.

Consider `CC(C)n1cnc(-c2ccc(F)cc2)c1-c1nc(C(=O)Nc2ccc(N3CC4CC(C3)N4C)cn2)cs1` [Compound 44, 2-(4-(4-fluorophenyl)-1-isopropyl-1H-imidazol-5-yl)-N-(5-(6-methyl-3,6-diazabicyclo[3.1.1]heptan-3-yl)pyridin-2-yl)thiazole-4-carboxamide], for which the “Human Liver Microsome (μM/min/mg)” value in data set [1] is “++ (10-100 μM/min/mg as ++)”. This molecule gave a pIC50 in data set [2] of 7.92 to 9.00.

On to `CN1C2CC1CN(c1ccc(NC(=O)c3csc(-c4c(-c5ccc(F)cc5)ncn4C4CC4)n3)nc1)C2` [Compound 45, 2-(1-cyclopropyl-4-(4-fluorophenyl)-1H-imidazol-5-yl)-N-(5-(6-methyl-3,6-diazabicyclo[3.1.1]heptan-3-yl)pyridin-2-yl)thiazole-4-carboxamide], for which the “Human Liver Microsome (μM/min/mg)” value in data set [1] is “++ (10-100 μM/min/mg as ++)”. The same molecule showed a negative-log IC50 (pIC50) in data set [2] of 7.92 to 9.00.

`CN1[C@@H]2CC[C@H]1CN(c1ccc(NC(=O)c3csc(-c4c(-c5ccc(F)cc5)ncn4C4COC4)n3)nc1)C2` [Compound 51, 2-(4-(4-fluorophenyl)-1-(oxetan-3-yl)-1H-imidazol-5-yl)-N-(5-((1R,5S)-8-methyl-3,8-diazabicyclo[3.2.1]octan-3-yl)pyridin-2-yl)thiazole-4-carboxamide]: the “Human Liver Microsome (μM/min/mg)” value in data set [1] is “++ (10-100 μM/min/mg as ++)”. Also, the pIC50 in data set [2] is 7.92 to 9.00.

For `CC(C)n1cnc(-c2ccc(F)cc2)c1-c1nc(C(=O)Nc2ccc(C3CCOCC3)cn2)c[nH]1` [Compound 53, 5′-(4-fluorophenyl)-3′-isopropyl-N-(5-(tetrahydro-2H-pyran-4-yl)pyridin-2-yl)-1H,3′H-[2,4′-biimidazole]-4-carboxamide], the “Human Liver Microsome (μM/min/mg)” value in data set [1] is listed as “++ (10-100 μM/min/mg as ++)”. The molecule also showed a pIC50 in data set [2] of 7.92 to 9.00.

For the molecule `CC(C)n1cnc(-c2ccc(F)cc2)c1-c1nc(C(=O)Nc2ccc(C3COC3)cn2)c[nH]1` [Compound 54, 5′-(4-fluorophenyl)-3′-isopropyl-N-(5-(oxetan-3-yl)pyridin-2-yl)-1H,3′H-[2,4′-biimidazole]-4-carboxamide], the “Human Liver Microsome (μM/min/mg)” value in data set [1] is “++ (10-100 μM/min/mg as ++)”. Besides, in data set [2], the negative-log IC50 (pIC50) was 7.92 to 9.00.

The pIC50 is −log10 of the IC50, conventionally taken in molar units. Low values mean a large IC50, high ones a small IC50.
